Test results taken from ChEMBL document CHEMBL1201862, “PubChem BioAssay data set” (2004).
Calls of active or inactive are those of the source.

Tests used:
Type in all cases: functional
Integrin alpha-L = Integrin alpha-L (Mus musculus, UniProt P24063); assay: modulators of CD8 T cell-vesicle binding, dose response, powder samples, mouse 2C CD8+ cells (AID 504565)
[1] = target: Tyrosine-protein phosphatase non-receptor type 5 (Homo sapiens, UniProt P54829); assay: PTPN5 enzyme inhibition – biochemical, fluorescence intensity, uHTS hits, confirmation (AID 602372); conditions: read-out: IC50_Mean
[2] = target: Tyrosine-protein phosphatase non-receptor type 11 (Homo sapiens, UniProt Q06124); assay: PTPN11 enzyme inhibitors – biochemical, selectivity assay for STEP inhibitor project, dose response (AID 602367); conditions: read-out: IC50_Mean
[3] = target: T1, Carboxy-terminal domain RNA polymerase II polypeptide A small phosphatase 1 (Homo sapiens, UniProt Q9GZU7); assay: CTDSP1 inhibitors, concentration-response, biochemical, absorbance readout, ultra-high-throughput screen actives (AID 540297)
T1 sequence (Q9GZU7 whole entry): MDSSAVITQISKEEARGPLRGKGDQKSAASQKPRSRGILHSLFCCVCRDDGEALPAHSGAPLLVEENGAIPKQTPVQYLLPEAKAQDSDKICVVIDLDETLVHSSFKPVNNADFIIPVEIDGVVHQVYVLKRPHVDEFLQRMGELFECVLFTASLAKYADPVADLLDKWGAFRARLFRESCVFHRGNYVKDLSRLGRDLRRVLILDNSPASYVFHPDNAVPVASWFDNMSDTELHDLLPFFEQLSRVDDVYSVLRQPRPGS

[4] = target: Dual specificity protein phosphatase 3 (Homo sapiens, UniProt P51452); assay: VHR phosphatase inhibition, dose response, selectivity assay for STEP inhibitor project, biochemical (AID 602374); conditions: read-out: IC50_Mean
[5] = target: DNA dC->dU-editing enzyme APOBEC-3G (Homo sapiens, UniProt Q9HC16);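 also: Dose-response counterscreen measuring inhibition of APOBEC3G DNA deaminase activity, run while confirming APOBEC3A inhibitors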
[6] = target: DNA dC->dU-editing enzyme APOBEC-3A (Homo sapiens, UniProt P31941); assay: Dose Response confirmation of small molecule APOBEC3A DNA Deaminase Inhibitors via a fluorescence-based single-stranded DNA deaminase assay. [Related pubchem assays (depositor defined):AID493011, AID493024]
Mucolipin-3 = Mucolipin-3 (Homo sapiens, UniProt Q8TDD5); assay: Fluorescence counterscreen assay for […] agonists: dose response cell-based high-throughput screening assay to identify agonists of the transient receptor potential channel ML3 (TRPML3). [Related pubchem assays: 1424, 1448 ]
Ion channel NompC = Ion channel NompC (Danio rerio, UniProt Q7T1G6); assay: Dose response cell-based high-throughput screening assay for agonists of the transient receptor potential channel N1 (TRPN1). [Related pubchem assays (depositor defined):AID1424, AID1448]
Chain of Ion channel NompC (Q7T1G6 whole entry): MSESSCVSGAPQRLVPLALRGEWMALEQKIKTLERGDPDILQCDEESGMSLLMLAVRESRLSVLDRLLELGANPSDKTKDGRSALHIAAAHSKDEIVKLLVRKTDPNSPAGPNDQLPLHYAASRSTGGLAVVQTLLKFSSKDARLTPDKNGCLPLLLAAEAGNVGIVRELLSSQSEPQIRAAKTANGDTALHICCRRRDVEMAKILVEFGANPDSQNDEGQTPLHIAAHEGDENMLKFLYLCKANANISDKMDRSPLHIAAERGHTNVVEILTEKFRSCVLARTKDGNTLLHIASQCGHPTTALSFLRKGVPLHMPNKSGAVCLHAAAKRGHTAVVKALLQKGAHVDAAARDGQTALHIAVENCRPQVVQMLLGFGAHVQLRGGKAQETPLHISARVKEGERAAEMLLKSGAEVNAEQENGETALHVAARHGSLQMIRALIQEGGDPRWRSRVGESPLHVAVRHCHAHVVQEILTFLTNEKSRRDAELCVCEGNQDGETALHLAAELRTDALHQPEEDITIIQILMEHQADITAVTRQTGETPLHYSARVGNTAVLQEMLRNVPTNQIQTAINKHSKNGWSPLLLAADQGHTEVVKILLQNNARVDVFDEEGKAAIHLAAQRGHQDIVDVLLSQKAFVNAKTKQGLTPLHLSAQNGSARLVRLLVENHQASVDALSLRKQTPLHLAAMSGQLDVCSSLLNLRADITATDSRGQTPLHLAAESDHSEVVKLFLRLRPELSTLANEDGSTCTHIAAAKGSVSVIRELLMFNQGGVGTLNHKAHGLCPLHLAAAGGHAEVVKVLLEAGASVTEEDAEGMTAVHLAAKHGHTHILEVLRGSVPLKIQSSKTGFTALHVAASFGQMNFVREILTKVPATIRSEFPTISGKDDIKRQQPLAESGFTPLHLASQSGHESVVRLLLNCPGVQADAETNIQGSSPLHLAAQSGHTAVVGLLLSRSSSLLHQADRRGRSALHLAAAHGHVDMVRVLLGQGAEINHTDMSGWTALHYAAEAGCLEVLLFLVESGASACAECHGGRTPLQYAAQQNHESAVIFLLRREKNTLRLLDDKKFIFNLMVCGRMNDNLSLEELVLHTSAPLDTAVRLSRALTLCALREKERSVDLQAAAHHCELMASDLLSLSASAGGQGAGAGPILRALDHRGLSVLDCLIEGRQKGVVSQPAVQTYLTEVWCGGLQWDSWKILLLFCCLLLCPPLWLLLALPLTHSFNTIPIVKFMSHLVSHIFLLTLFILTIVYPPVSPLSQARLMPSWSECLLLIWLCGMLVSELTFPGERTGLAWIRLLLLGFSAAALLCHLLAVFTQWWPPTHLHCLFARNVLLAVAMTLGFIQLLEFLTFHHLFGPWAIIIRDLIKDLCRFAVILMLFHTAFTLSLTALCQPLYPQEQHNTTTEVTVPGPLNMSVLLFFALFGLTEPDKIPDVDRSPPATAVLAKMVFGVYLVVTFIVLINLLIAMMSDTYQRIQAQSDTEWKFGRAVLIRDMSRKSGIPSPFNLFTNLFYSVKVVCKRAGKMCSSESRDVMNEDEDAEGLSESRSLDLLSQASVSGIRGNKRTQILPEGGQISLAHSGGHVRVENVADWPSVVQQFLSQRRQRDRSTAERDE

Chain of DNA dC->dU-editing enzyme APOBEC-3A (P31941 whole entry): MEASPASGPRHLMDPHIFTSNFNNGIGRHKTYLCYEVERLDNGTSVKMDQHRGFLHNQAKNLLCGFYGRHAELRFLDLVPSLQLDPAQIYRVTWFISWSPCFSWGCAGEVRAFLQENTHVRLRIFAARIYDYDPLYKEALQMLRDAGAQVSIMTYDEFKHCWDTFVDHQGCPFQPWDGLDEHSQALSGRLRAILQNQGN
Chain of Tyrosine-protein phosphatase non-receptor type 5 (P54829 whole entry): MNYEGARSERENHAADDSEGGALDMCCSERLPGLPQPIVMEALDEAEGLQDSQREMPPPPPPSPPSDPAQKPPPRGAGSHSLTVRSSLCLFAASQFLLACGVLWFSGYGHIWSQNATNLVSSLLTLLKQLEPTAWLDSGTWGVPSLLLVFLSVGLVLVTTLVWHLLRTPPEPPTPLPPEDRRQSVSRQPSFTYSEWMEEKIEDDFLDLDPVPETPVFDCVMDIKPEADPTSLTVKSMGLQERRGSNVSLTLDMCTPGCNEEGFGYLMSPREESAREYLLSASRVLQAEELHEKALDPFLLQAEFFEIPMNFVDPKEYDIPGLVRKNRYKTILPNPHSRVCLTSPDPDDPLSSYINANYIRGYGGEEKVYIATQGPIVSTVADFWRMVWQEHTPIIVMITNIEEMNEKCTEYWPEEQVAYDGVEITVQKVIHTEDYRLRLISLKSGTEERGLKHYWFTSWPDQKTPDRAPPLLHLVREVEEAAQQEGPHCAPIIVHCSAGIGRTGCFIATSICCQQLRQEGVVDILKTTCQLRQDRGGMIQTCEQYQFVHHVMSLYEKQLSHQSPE
Chain of Dual specificity protein phosphatase 3 (P51452 whole entry): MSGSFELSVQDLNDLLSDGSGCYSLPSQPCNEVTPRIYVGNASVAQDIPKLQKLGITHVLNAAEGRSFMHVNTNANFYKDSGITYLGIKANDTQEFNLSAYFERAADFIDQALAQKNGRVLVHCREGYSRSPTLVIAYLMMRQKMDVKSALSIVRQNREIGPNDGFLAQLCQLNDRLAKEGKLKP
Chain of Integrin alpha-L (P24063 whole entry): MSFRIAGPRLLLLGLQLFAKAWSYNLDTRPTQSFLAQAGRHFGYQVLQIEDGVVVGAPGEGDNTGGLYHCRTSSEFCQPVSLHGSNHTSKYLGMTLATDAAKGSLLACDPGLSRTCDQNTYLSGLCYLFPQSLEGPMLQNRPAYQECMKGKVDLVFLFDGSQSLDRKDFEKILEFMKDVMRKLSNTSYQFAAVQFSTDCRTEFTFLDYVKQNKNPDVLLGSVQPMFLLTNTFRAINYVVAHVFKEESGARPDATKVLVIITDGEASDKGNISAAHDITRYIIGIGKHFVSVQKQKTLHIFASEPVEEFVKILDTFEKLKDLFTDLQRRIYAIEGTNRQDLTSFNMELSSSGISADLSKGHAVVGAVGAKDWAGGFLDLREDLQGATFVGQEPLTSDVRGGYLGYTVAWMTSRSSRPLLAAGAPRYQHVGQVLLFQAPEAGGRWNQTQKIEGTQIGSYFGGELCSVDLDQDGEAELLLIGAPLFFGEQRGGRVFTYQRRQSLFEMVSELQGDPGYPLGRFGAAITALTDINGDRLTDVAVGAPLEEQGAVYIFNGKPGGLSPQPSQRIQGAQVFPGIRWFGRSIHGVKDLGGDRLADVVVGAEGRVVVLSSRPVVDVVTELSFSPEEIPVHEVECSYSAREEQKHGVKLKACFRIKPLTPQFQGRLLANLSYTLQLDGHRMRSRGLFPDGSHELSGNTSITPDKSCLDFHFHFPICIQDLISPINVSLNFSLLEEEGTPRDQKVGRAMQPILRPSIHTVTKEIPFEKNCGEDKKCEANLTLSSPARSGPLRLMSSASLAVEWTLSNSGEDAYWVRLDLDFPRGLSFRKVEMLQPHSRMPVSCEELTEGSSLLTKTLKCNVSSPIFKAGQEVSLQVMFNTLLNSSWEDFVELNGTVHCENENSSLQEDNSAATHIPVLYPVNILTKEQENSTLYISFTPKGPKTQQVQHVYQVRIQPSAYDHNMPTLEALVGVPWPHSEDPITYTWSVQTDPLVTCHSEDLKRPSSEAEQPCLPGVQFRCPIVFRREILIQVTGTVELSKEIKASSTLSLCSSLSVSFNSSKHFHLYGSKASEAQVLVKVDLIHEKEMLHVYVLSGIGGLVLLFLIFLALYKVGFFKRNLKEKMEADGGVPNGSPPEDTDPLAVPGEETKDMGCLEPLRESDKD
Chain of Tyrosine-protein phosphatase non-receptor type 11 (Q06124 whole entry, the tested form may be a part): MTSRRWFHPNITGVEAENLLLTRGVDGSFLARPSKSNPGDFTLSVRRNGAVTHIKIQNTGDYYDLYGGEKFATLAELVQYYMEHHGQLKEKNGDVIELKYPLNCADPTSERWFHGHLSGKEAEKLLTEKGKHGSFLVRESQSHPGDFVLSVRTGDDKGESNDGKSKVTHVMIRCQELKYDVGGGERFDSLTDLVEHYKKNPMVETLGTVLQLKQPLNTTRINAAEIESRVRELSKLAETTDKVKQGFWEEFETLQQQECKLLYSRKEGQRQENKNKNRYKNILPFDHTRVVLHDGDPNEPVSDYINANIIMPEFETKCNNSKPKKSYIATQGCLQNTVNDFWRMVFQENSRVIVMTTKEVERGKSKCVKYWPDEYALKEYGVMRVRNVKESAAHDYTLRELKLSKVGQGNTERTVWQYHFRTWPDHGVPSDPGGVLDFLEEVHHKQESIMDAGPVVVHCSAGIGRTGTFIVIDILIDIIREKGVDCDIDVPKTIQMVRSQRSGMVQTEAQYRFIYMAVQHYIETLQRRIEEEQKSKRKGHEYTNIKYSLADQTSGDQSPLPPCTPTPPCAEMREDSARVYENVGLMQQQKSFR
Chain of Mucolipin-3 (Q8TDD5 whole entry): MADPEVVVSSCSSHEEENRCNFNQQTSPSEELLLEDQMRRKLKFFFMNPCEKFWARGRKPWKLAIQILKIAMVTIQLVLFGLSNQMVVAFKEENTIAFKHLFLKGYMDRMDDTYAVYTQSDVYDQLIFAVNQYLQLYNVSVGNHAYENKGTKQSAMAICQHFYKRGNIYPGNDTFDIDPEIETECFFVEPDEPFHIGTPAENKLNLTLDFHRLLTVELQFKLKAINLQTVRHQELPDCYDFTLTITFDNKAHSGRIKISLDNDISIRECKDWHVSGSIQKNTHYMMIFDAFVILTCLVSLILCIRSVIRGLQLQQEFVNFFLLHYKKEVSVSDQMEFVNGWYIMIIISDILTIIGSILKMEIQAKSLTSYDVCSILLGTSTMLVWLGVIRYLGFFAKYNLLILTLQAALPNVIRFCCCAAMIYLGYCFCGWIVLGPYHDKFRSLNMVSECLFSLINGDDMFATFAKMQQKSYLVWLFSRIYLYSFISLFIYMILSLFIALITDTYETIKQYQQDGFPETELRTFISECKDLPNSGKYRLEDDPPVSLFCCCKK

In the case of `O=C(COC(=O)C12CC3CC(CC(Br)(C3)C1)C2)Nc1cccc(S(=O)(=O)N2CCOCC2)c1`, the EC50 (Integrin alpha-L) is reported as 1.21 µM (active).
In the case of `COc1cccc(N2[C@@H](CC(=O)O)c3ccc(/C=C/C(=O)O)cc3S2(=O)=O)c1`, the IC50 [1] is reported as 52.1 µM (inactive), the IC50 [2] is reported as 0.933 µM (active) and the IC50 [3] is reported as 2.88 µM (active). For the same molecule, the IC50 [4] was 2.49 µM (active), the IC50 [5] was 41.2 µM (active) and the IC50 [6] was 12.2 µM (active).
In the case of `CCN1CCN(CCNC(=O)c2cn(Cc3ccccc3F)nn2)CC1`, the EC50 (Mucolipin-3) is reported as > 29.9 µM (not active) and the EC50 (Ion channel NompC) is reported as > 29.9 µM (inactive).
